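Test compounds were applied to cells in 96-well plates for 48 hours at 5 doses. At the GI50, growth is halved. At the TGI there is no net growth.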
Tests used:
Assay in all cases: growth of human tumour cells (NCI), 48 h
[1] = system: A498 renal
[2] = system: HL-60(TB) leukemia
[3] = system: HOP-62 NSCLC
[4] = system: HOP-92 NSCLC
[5] = system: NCI-H460 lung
[6] = system: NCI-H522 lung
[7] = system: SF-539 CNS
[8] = system: SK-MEL-28 melanoma
[9] = system: UACC-62 melanoma
[10] = system: UO-31 renal

SMILES	TGI [1] [µM]	TGI [2] [µM]	TGI [3] [µM]	TGI [4] [µM]	TGI [5] [µM]	TGI [6] [µM]	TGI [7] [µM]	TGI [8] [µM]	TGI [9] [µM]	TGI [10] [µM]	GI50 [1] [µM]	GI50 [2] [µM]	GI50 [3] [µM]	GI50 [4] [µM]	GI50 [5] [µM]	GI50 [6] [µM]	GI50 [7] [µM]	GI50 [8] [µM]	GI50 [9] [µM]	GI50 [10] [µM]
Oc1c2c(c(O)c3ccccc13)C1(N=N2)c2ccccc2Oc2ccccc21	35.7	62.1	38.5	31	46.3	5.13	20.2	28.8	25.1	23.3	–	–	–	–	–	–	–	–	–	–
CC(=O)c1ccc2c(c1)N(CCCN(C)C)c1ccccc1S2	25.1	41	31.6	53.7	33.8	34.1	28.2	32	29.1	29.1	11.4	14	15.6	11.3	18	16.2	13.7	16.2	14.9	13.5
Cc1cc(O)cc(C)c1/C=C/c1cncc(C(=O)OC(C)(C)C)c1	> 25	22.7	> 25	18.8	> 25	24.8	> 25	> 25	> 25	> 25	8.09	8.65	> 19.4	4.01	13.5	7.95	> 18.5	17.9	17	8.34
COC1=CC(=O)NCCN1	> 100	41	> 100	> 100	85.9	> 100	> 100	> 100	> 100	> 100	–	–	–	–	–	–	–	–	–	–
CC1(C)CC(=O)c2c(ccc(C(=O)C[C@@H](N)CO)c2N)O1	27.7	> 63.7	> 49.1	> 69.3	> 100	15.3	5.22	34.5	3.61	> 100	0.921	4.03	0.643	6.28	0.166	0.919	0.399	0.595	0.333	1.1
CN(C)c1ccc(C(=C2C=CC(=[N+](C)C)C=C2)c2ccccc2Cl)cc1	1.04	3.84	0.949	1.35	0.804	0.925	0.951	1.44	1.43	6.49	0.289	0.277	0.292	0.302	0.245	0.268	0.259	0.4	0.323	0.762
COC(=O)/C(=C\c1c(-c2ccccc2)[nH]c2ccccc12)S(C)(=O)=O	21.3	15.1	36.7	50.2	14.2	14.5	11.5	21.9	17	28.7	6.56	3.38	10.7	6.56	3.54	3.06	3.11	6.04	3.34	5.49
CC(OC(=O)N(N(CCCl)S(C)(=O)=O)S(C)(=O)=O)c1ccc([N+](=O)[O-])cc1 (stereo not given)	43.3	> 100	> 100	> 100	> 100	> 100	> 47.5	> 100	> 100	> 100	1.7	40.1	29.4	> 100	> 78.7	51.4	3.42	> 100	29.6	> 100
FC(F)(F)c1[nH]ncc1-c1nc2ccc3[nH]ncc3c2c2c1CCCC2	2.6	6.22	6.79	3.5	9.34	4.77	2.83	4.86	2.83	5	1.17	2.09	1.17	1.21	1.72	1.24	1.2	1.41	1.02	1.3
Oc1c(CNCCNCc2cc(Cl)cc(Cc3ccccc3)c2O)cc(Cl)cc1Cc1ccccc1	8.88	9.84	47.3	23.9	12.2	25.6	3.93	30.7	10.9	1.34	1.22	0.43	0.307	2.68	0.331	0.546	0.314	0.478	0.436	0.128
CC(=O)/C(=C\c1c(-c2ccccc2)[nH]c2ccccc12)S(=O)(=O)c1ccccc1	15.9	5.28	3.03	15.4	2.68	4.35	3.08	7.02	4.46	3.54	5.44	1.69	1.18	3.66	1.04	1.17	1.31	1.87	0.975	1.58
CCN(Cc1cccc(F)c1F)c1ccc(CO)c(Cl)c1	0.102	41.2	24.6	8.23	11	31.2	30.2	30.1	0.519	32.1	0.0217	7.25	1.82	0.19	0.176	14.1	15.5	14	0.0842	2.35
Clc1ccc(N2CCC(N3CCCC3)CC2)cc1-c1nc2ccccc2[nH]1	27.8	50.1	40.1	42.8	50.1	38.7	32.1	31.2	32.1	34	12.8	23.5	19.8	13.4	22.9	19.1	17	16.5	16.2	16.7
